From patent publication US7994158B2, “Method for inhibiting tumor growth with dehydrosulphurenic acid extracted from Antrodia cinnamomea” (priority 2008, dated 2011)
Values after ≈ are worked out from the molar mass of the structure shown.

Assays:
[1] = tested on: human leukemic cell line U937; test: Mitochondrial transmembrane potential (DiOC6(3), flow cytometry); type: cell-based; settings: 16 hours
Excerpt: Mitochondrial pathway is one of the pathways of apoptosis induction. In cells undergoing apoptosis, mitochondria were stimulated to regulate the Bcl-2 family of proteins, which made the inner and outer mitochondrial membrane unstable. Apoptigenic factors were further released to induce apoptosis. The apoptotic mechanism of dehydrosulphurenic acid in tumor cells was studied in this experiment by measuring the mitochondrial transmembrane potential.
Dehydrosulphurenic acid in the concentration of 5 μg/ml were used to treat human leukemic cell line U937 for 16 hours; while U937 cells treated with 4 μM anti-cancer drug Camptothecin for 16 hours were served as positive control, and cells without treatment were served as negative control. These cells were washed with PBS and incubated with 40 nM 3,3′-dihexyloxacarbocyanine (DiOC6(3), Molecular Probes, Eugene, Oreg.) in the dark at 37° C. for 15 min, and were detected by flowcytometry. Excitation and emission wavelength settings of 488 nm and 530 nm were used to detect the density of green fluorescence to further estimate mitochondrial membrane potential.

[2] = tested on: human monoblastoid leukemic cell line U937; test: In vitro survival assay (MTT) for anti-leukemia effects; type: cell-based
Procedure: The NCI anti-cancer drug screen model was adopted to test the anti-cancer effect of dehydrosulphurenic acid. Dehydrosulphurenic acid was added into the culture media of human monoblastoid leukemic cell line U937 to test for tumor cell survival. This survival assay was carried out with the widely known MTT assay. American Type Culture Collection (ATCC) purchased U937 cell line is from lymphoma cells, which belongs to one of human leukemic cell lines and was classified into monoblasts during hematopoietic differentiation.
MTT assay is commonly used to determine cell proliferation, percent of viable cells, and cytotoxicity. MTT (3-[4,5-dimethylthiazol-2-yl]2,5-diphenyltetrazolium bromide) is a yellow dye, which can be absorbed by the living cells and be reduced to purplish blue formazan crystals by succinate tetrazolium reductase in mitochondria. Formazan formation can therefore be used to assess and determine the survival rate of cells.
(§1) The human leukemic cell line U937 was cultivated in RPMI media containing fetal calf serum for 24 hours and maintained in exponential growth condition. The proliferated cells were treated with dehydrosulphurenic acid in the concentration of 0 (the control group), 1.25, 2.5, 5, and 10 μg/ml (the experimental group), respectively. The cells were incubated at 37° C. in a 5% CO2 incubator for 24-72 hours. MTT was added in a concentration of 500 μg/ml into each well in dark and incubated for 4 hours, followed by the addition of 500 μl of isopropanol to stop the reaction. The plates were read on an ELISA reader at wavelength of 570 nm to determine the survival rates. The results were reported as the average±(plus/minus) SEM (Standard Error in the Mean). For statistical analysis, the t-test were used to compare the difference between each experiment result. P<0.05 was considered statistically significant.

[3] = tested on: human pancreatic cancer cell line BxPc-3; test: In vitro survival assay (MTT) for anti-pancreatic cancer effects; type: cell-based
Procedure: The NCI anti-cancer drug screen model was also adopted to test the anti-cancer effect. Dehydrosulphurenic acid was added into the culture media of human pancreatic cancer cell line BxPc-3 to test for tumor cell survival. This survival assay was carried out with the abovementioned MTT assay. American Type Culture Collection (ATCC) purchased BxPc-3 cell line is from pancreatic cancer cells, which was originated from the epithelium of human pancreatic adenocarcinomas.
as §1, with “pancreatic cancer” for “leukemic”, “BxPc-3” for “U937”, “DMEM” for “RPMI”, “containing 100 IU/ml penicillin (Invitrogen, Carlsbad, Calif.), 100 IU/ml Streptomycin (Invitrogen, Carlsbad, Calif.), 2 mM glutamin (Invitrogen, Carlsbad, Calif.), 100 IU/ml penicillin (Invitrogen, Carlsbad, Calif.) and 10%” for “containing”, “(Atlanta Biologicals, Norcross, Ga.).” for “for 24 hours and maintained in exponential growth condition.”, “5” for “1.25, 2.5, 5,”

[4] = tested on: human leukemic cell line U937; test: Cell cycle analysis by flow cytometer (propidium iodide); type: cell-based
Procedure: (§2) Flow cytometer was used to analyze the cell proliferation effect of dehydrosulphurenic acid toward human leukemic cell line U937 and human pancreatic cancer cell line BxPc-3.
(§3) Dehydrosulphurenic acid in the concentration of 1.25, 2.5, 5, and 10 μg/ml were used to treat human leukemic cell line U937 and the concentration of 5 and 10 μg/ml were used to treat human pancreatic cancer cell line BxPc-3; cells without addition of dehydrosulphurenic acid were served as the control group. The treated cells were fixed at […] with 70% ethanol for 1 hour and stained for 30 min with propidium iodide solution (propidium iodide, 0.5 mg/ml; RNAse, 0.1 mg/ml) contained in a CycleTEST PLUS DNA reagent kit (Becton Dickinson, Lincoln Park, N.J.). DNA content measurement on the collected 10^4 cells was performed on the FACS Calibur flow cytometer (Becton Dickinson, Calif., USA), and the cell cycle changes were analyzed using a ModFit software (Becton Dickinson).

[5] = tested on: human pancreatic cancer cell line BxPc-3; test: as above; type: cell-based; settings: 5 and 10 μg/ml; 2 to 3 days
Procedure: as §2, §3

[6] = tested on: human leukemic cell line U937; test: Cell morphology analysis (Liu's staining); type: cell-based; settings: treatment for 24-72 h
Procedure: (§4) The human leukemic cell line U937 and the human pancreatic cancer cell line BxPc-3 were treated respectively with dehydrosulphurenic acid for 24-72 h and stained with Liu's staining solution. The morphological changes of cells with (the experimental group) or without dehydrosulphurenic acid treatment (the control group) were observed under inverted phase-contrast microscope and shown in FIG. 5 and FIG. 6.

[7] = tested on: human pancreatic cancer cell line BxPc-3; test: Cell morphology analysis (Liu's staining); type: cell-based; settings: 10 μg/ml
Procedure: as §4

[8] = tested on: human leukemic cell line U937; test: Nuclear DNA changes, DNA ladder by DNA electrophoresis; type: cell-based; settings: 5 μg/ml; 24, 48, and 72 hours
Procedure: (§5) Besides the abovementioned morphological changes, biochemical changes of the dying cell during apoptosis include chromatin condensation, cell shrinkage and breaking into apoptotic bodies, internucleosomal DNA fragmentation into a multiple DNA ladder during the late stage of apoptosis (can be shown in DNA electrophoresis) and so on. To further define the effects of dehydrosulphurenic acid on U937 and BxPc-3 during apoptotic stages, DNA ladders were determined using DNA electrophoresis at the present experiment.
(§6) Dehydrosulphurenic acid in the concentration of 5 μg/ml were used to treat human leukemic cell line U937 and human pancreatic cancer cell line BxPc-3 for 24, 48, and 72 hours; while U937 cells treated with 4 μM anti-cancer drug Camptothecin for 24 hours were served as positive control. Then these cells were lyzed with 0.5 ml of lysis buffer (5 mM Tris-borate (TBE), pH8.0; 0.25 ml Nonidet P-40; 1 mM EDTA; 20 μg/ml RNase (Sigma, St. Louis, Mo.)) at 37° C. for 1 hour, followed by treating with 300 μg/ml proteinase K for 1 hour. Total DNAs were extracted and analyzed by 1.5% agarose gel electrophoresis in TBE buffer (5 mM TBE buffer containing 1 μM EDTA, pH 8.0).

[9] = tested on: human pancreatic cancer cell line BxPc-3; test: as above; type: cell-based; settings: 5 μg/ml; 24, 48, and 72 hours; data not shown
Procedure: as §5, §6

[10] = tested on: apoptosis- and mitotic catastrophe-related proteins in U937 cells; test: Western blot analysis of apoptosis-related proteins; type: cell-based, human; settings: 5 μg/ml; 0.5-16 hours
Excerpt: Death receptor pathway is a signal transduction pathway of apoptosis induction. Some of the death factors, such as TNF-α and so on, bind with death receptor (DR) such as TNF family in the membrane to send death signal to cells and induce a series of apoptotic events. A family of aspartic acid-specific proteases, known as caspases, includes caspase-3 and caspase-8 would be activated during apoptotic process. Activated caspase can cleave downstream protein such as Poly(ADP-ribose) polymerase (PARP) to proceed through apoptosis. This experiment investigated the implication of the death receptor pathway in dehydrosulphurenic acid-induced apoptosis through Western blot analysis.
Dehydrosulphurenic acid in the concentration of 5 μg/ml were used to treat human leukemic cell line U937 for 0.5, 1, 2, 4, and 16 hours; while U937 cells treated with 4 μM anti-cancer drug Camptothecin for 16 hours were served as positive control, and cells without treatment were served as negative control. All the proteins from the cells were extracted with bicinchoninic acid (BCA) assay kit (Pierce, Rockford, Ill.). Equal amounts ([…]) of the protein were aliquoted and separated by electrophoresis on a 10% SDS-PAGE gel at a constant current of 20 mA and 70-100 volts. The proteins on the gel were transferred onto PVDF membranes, blocked with 5% non-fat milk, and incubated respectively with human-specific antibodies including: anti-Bcl-2, anti-Bax, anti-caspase 3, anti-caspase 8, anti-Cyclin B1, anti-p-Chk2 and anti-Actin (all were purchased from Transduction Laboratories, Lexington, Ky., USA) for 3 hours at room temperature. Secondary antibody horseradish peroxidase (purchased from Transduction Laboratories, Lexington, Ky., USA) was then added and the signals were detected under an Enhanced chemiluminescence system (ECS, Amersham Pharmacia, Piscataway, N.J.).

[11] = concentration groups of 5 and 10 μg/ml, third day of experiment

`CC[C@@]1(O)C(=O)OCc2c1cc1n(c2=O)Cc2cc3ccccc3nc2-1` [Camptothecin, reference compound] was tested, and the “decrease of mitochondrial transmembrane potential” value ([1]; 4 μM camptothecin (positive control)) was 37.1%.

For `C=C(CC[C@@H](C(=O)O)C1C[C@H](O)[C@@]2(C)C3=CCC4C(C)(C)[C@@H](O)CC[C@]4(C)C3=CC[C@]12C)C(C)C` (stereo partly drawn) [dehydrosulphurenic acid, 24-methylenelanosta-7,9(11)-diene-3β,15α-diol-21-oic acid], the inhibitory rate ([2]; 1.25, 2.5, 5, and 10 μg/ml (all groups), third day of experiment) was “more than 60%”, the “growth inhibition of U937 cells” value ([2]; 1.25, 2.5, 5, and 10 μg/ml, first day of experiment) was “inhibit the growth of U937 cells effectively” and the IC50 ([2]; Homo sapiens, U-937, MTT, data not shown, read-out: IC50 toward U937 cells) was roughly 2 µg/mL (≈ 4.13 µM). The inhibitory rate [2, 11] was “more than 95%”, the highest inhibitory rate ([2]; third day of experiment) was 98.9% and the “growth inhibition of BxPc-3 cells” value ([3]; 5 and 10 μg/ml, 24-72 hours) was “significantly inhibit the growth of BxPc-3 cells”. The IC50 ([3]; Homo sapiens, BXPC-3, MTT, data not shown, read-out: IC50 toward BxPc-3 cells) was roughly 5 µM, the inhibitory rate [3, 11] was “more than 60%” and the highest inhibitory rate ([3]; third day of experiment) was 82.5%. The cell cycle arrest ([4]; 1.25-10 μg/ml, first day of experiment) was “remarkable G2/M phase arrest”, the sub-G1 population ([4]; higher concentration or second/third day of experiment) was “accumulating at sub-G1 population” and the “percentage of cells with polyploidy” value ([4]; with increasing concentration) was “accompanied by increasing concentration”. The cell cycle arrest [5] was “remarkable G0/G1 phase arrest”, the “percentage of polyploidy cells” value [5] was “not changed” and the sub-G1 population [5] was “increase of cell cycle arrest at sub-G1 population”. For the same compound, the morphological change [6] was “induced to undergo apoptosis and mitotic catastrophe”, the morphological change ([7]; after 2 days of treatment) was “typical cell apoptosis was observed” and the morphological change ([7]; treatment for one day) was “balloon-shaped cells were presented”. For the same compound, the DNA ladder [8] was “obvious DNA ladders”, the DNA ladder [9] was “no DNA ladder” and the “decrease of mitochondrial transmembrane potential” value ([1]; 5 μg/ml) was “no significant decrease”. The Bax expression [10] was “not changed”, the Bcl-2 expression [10] was “slightly increased” and the “cleavage of PARP” value [10] was “no cleavage”. The “cyclin B1 expression” value [10] was “up-regulated”, the “expression of caspase-3” value [10] was “not altered” and the “expression of caspase-8” value [10] was “not altered”. For the same compound, the “phosphorylation of Chk2” value [10] was “augmented”.
